Laboratory results from publication PMC6319706 (PLoS ONE, 2019).
Like-named read-outs stand apart in the source and are kept apart here.

How the values were obtained:
[1] = biological target: T1, mouse adult α1β1εδ nAChR (Mus musculus, UniProt P02716+P04756+P09690+P20782); assay: cell-based; assay type: cell-based
[2] = biological target: human α7 nAChR (Homo sapiens, UniProt P36544); assay: cell-based
[3] = biological target: T2, mouse 5-HT3AR (Mus musculus, UniProt P23979); assay: cell-based; assay type: cell-based
[4] = biological target: T1, mouse adult α1β1εδ nAChR; assay type: cell-based
[5] = biological target: mouse α3β2γ2 GABAAR (Mus musculus, UniProt P22723+P26049+P63137); assay: cell-based; details: for inhibition at 100 µM: read-out: inhibition of GABA-evoked currents
[6] = biological target: α1β3γ2 GABAAR (Mus musculus, UniProt P62812+P63080); assay type: binding
[7] = biological target: T2, mouse 5-HT3AR; details: cited from earlier work
[8] = tested on: human 5-HT3AR; details: cited from earlier work
[9] = tested on: GABAAR; details: cited from earlier work
[10] = tested on: end-plate muscle type nAChRs; details: cited from earlier work

**Q.** Which IC50 [1] does the source give for COc1cc2c(cc1O)[C@@H](Cc1ccc(O)c(Oc3cc4c(cc3OC)CCN[C@H]4Cc3ccc(O)cc3)c1)NCC2 [BBIQA1] here?
**A.** 0.75 µM

**Q.** And the “nH (Hill slope)” value [1]?
**A.** -0.96 ± 0.16

**Q.** What about the IC50 [2] of the same compound?
**A.** 1.7 µM

**Q.** What about the “nH (Hill slope)” value [2] of the same compound?
**A.** -0.83 ± 0.17

**Q.** What about the IC50 [3] of the same compound?
**A.** 0.119 µM

**Q.** What about the “fold less active than d-TC” value [3] of the same compound?
**A.** 5 fold

**Q.** And the “nH (Hill slope)” value [3]?
**A.** -1.06 ± 0.09

**Q.** And the “effect on maximal acetylcholine response (in words)” value [4]?
**A.** reduces the maximal acetylcholine response

**Q.** And the inhibition at 100 µM [5]?
**A.** 40 to 50%

**Q.** What about the “competition with Alexa Fluor 546 αCtx binding (in words)” value [6] of the same compound?
**A.** comparable affinities

**Q.** What does the source list for COc1ccc2cc1Oc1cc3c(cc1O)CCN[C@H]3Cc1ccc(cc1)Oc1c(O)c(OC)cc3c1[C@@H](C2)[N+](C)(C)CC3 [BBIQA2]?
**A.** IC50 [1]: 1.75 µM; fold less potent than BBIQA1 and d-TC [1]: ~ 2 fold; nH (Hill slope) [1]: -1.04 ± 0.21; IC50 [2]: 3.08 µM; nH (Hill slope) [2]: -0.94 ± 0.29; IC50 [3]: 1.97 µM; fold less active than d-TC [3]: 87 fold; nH (Hill slope) [3]: -1.83 ± 0.01; effect on maximal acetylcholine response (in words) [4]: reduces the maximal acetylcholine response; inhibition at 100 µM [5]: 40 to 50%; competition with Alexa Fluor 546 αCtx binding (in words) [6]: comparable affinities

**Q.** Which results are given for COc1cc2c3cc1Oc1cc(ccc1O)C[C@@H]1c4c(cc(OC)c(O)c4Oc4ccc(cc4)C[C@@H]3N(C)CC2)CC[N+]1(C)C [d-TC, d-tubocurarine, reference compound]?
**A.** IC50 [1]: 0.81 µM; nH (Hill slope) [1]: -1.87 ± 0.41; IC50 [2]: 2.03 µM; nH (Hill slope) [2]: -1.39 ± 0.21; IC50 [3]: 0.0226 µM; nH (Hill slope) [3]: -1.19 ± 0.21; effect on maximal acetylcholine response (in words) [4]: reduces the maximal acetylcholine response; inhibition of GABA-evoked currents [5]: almost completely inhibited; inhibition at 100 µM [5]: 90%; competition with Alexa Fluor 546 αCtx binding (in words) [6]: comparable affinities; IC50 [7]: 0.0114 to 0.013 µM; IC50 [8]: 1.8 µM; inhibition of GABAAR (in words) [9]: inhibits GABAAR; fold higher affinity of orthosteric α/ε (or α/γ) site than orthosteric α/δ site [10]: 100 fold

**Q.** With “α-bungarotoxin [αBgt, reference compound]” as the compound, how does the “effect on maximal acetylcholine response (in words)” value [4] read?
**A.** did not observe any reduction in the maximal amplitude
